This note sets out measurements from patent US11072628B2, “Nucleoside analogues for the treatment of parasitic infections” (UNIVERSITEIT GENT, priority 2017, dated 2021).

The structures appear in SMILES notation. Where two headings read alike, the source gives them in different places. A value given as a limit tells only on which side of the number the result lay.

In data set [1] the test system is T. cruzi Tulahuen CL2 β galactosidase strain. As to the kind of experiment: T. cruzi Tulahuen CL2 β galactosidase strain on MRC-5SV2 cells (CPRG). It counts as cell-based, Trypanosoma cruzi. As to conditions: Trypanosoma cruzi, TULAHUEN, MRC-5 SV2. The method, then:
All cultures and assays were conducted at 37° C./5% CO2. […] The results were expressed as % reduction in parasite burdens compared to control wells from which an EC50 was calculated.

The subject of data set [2] is T. brucei Squib 427. As to the kind of experiment: In vitro drug susceptibility, T. brucei Squib 427 (resazurin). Type of data set: cell-based, Trypanosoma brucei brucei. As to conditions: for EC50: Trypanosoma brucei. The method, then:
(§1) All trypanosome strains were cultured in the standard HMI-9 medium supplemented with 10% fetal bovine serum (FBS) at 37° C. in a 5% CO2 atmosphere.
(In general: Alamar Blue is a resazurin reagent that responds to reducing activity.)

Data set [3] in a line: Cytotoxicity against MRC-5 fibroblasts. As to conditions: human. The method, then: Cytotoxicity was assayed against MRC-5 fibroblasts. Results are depicted in Tables 4 and 5.
For data set [4], the system named is T. b. rhodesiense STIB-900. As to the kind of experiment: In vitro drug susceptibility, T. b. rhodesiense STIB-900 (resazurin). It counts as cell-based, Trypanosoma brucei rhodesiense. As to conditions: Trypanosoma brucei, RHODESIENSE
The method, then:
as §1

Where [5] appears, read: Table 2, average of 2-3 independent replicates.
Where [6] appears, read: read-out: T.b. brucei EC50, Table 4, average of 2-6 independent determinations.
[7] abbreviates: Table 5, average of 2-4 independent replicates.
Setting [8] is: MRC-5 fibroblasts, MRC-5 EC50, Table 4, cytotoxicity.
Where [9] appears, read: MRC-5 fibroblasts, MRC-5 EC50, Table 5, cytotoxicity.
Where [10] appears, read: read-out: T. brucei brucei EC50, Table 1, average of 2-4 independent determinations.
[11] abbreviates: MRC-5 fibroblasts, MRC-5 EC50, Table 1, cytotoxicity.
The mark [12] stands for this setting: MRC-5 fibroblasts, MRC-5 EC50, Table 2, cytotoxicity.
[13] abbreviates: Table 1, average of 2-4 independent determinations, read-out: T. brucei brucei EC50.
The mark [14] stands for this setting: Table 1, average of 2-4 independent determinations, read-out: T. brucei rhod. EC50.

As a reminder, the EC50 is the concentration that produces a half-maximal response.

Consider `O=C(Cn1ccnc1[N+](=O)[O-])NCc1ccccc1` [Benznidazole, reference compound], for which the midpoint of the response in data set [1] (setting [5]), the EC50, lay at 2400 nM.

For `Nc1ncnc2c1c(-c1cccnc1)cn2[C@@H]1O[C@H](CO)[C@@H](O)[C@H]1O` [FH4185, 4-amino-5-(pyrid-3-yl)-N7-(β-D-ribofuranosyl)-pyrrolo[2,3-d]pyrimidine], the “anti-trypanosomal activity against T. brucei, in words” value in data set [2] is “no discernible trypanocidal effects”. Moreover, the EC50 in data set [2] (setting [6]) was over 64000 nM; in data set [1] (setting [7]) it was 15400 nM; in data set [3] (setting [8]) it was over 64000 nM; in data set [3] (setting [9]), over 64000 nM.

Take `Nc1ccnc2c1c(I)cn2[C@@H]1O[C@H](CO)[C@@H](O)[C@H]1O` [FH5319, 3-iodo-4-amino-N1-(β-D-ribofuranosyl)-pyrrolo[2,3-b]pyridine]: the EC50 in data set [2] (setting [6]) was 400 nM; in data set [4] (read-out: T.b. rhod. EC50), over 64000 nM; in data set [1] (setting [7]), 40 nM; in data set [3] (setting [8]) it was over 64000 nM; in data set [3] (setting [9]), over 64000 nM.

As for `Nc1ncnc2c1c(Br)cn2[C@@H]1O[C@H](CO)C[C@H]1O` [FH7429_U, 4-amino-5-bromo-N7-(3′-deoxy-β-D-ribofuranosyl)-pyrrolo[2,3-d]pyrimidine], the EC50 in data set [2] (setting [10]) is 2 nM; in data set [4] (read-out: T. brucei rhod. EC50), under 0.5 nM; in data set [1] (setting [5]), 20 nM; in data set [3] (setting [11]) it was 16100 nM; in data set [3] (setting [12]), 16100 nM.

For `COc1ncnc2c1c(Cl)cn2[C@@H]1O[C@H](CO)[C@@H](O)[C@H]1O` [FH8446, 4-methoxy-5-chloro-N7-(β-D-ribfuranosyl)-pyrrolo[2,3-d]pyrimidine], the EC50 is 160 nM in data set [2] (setting [6]); 40 nM in data set [4] (read-out: T.b. rhod. EC50); 12700 nM in data set [1] (setting [7]); 48000 nM in data set [3] (setting [8]); 48000 nM in data set [3] (setting [9]).

In the case of `Nc1ncnc2c1c(Cl)cn2[C@@H]1O[C@H](CO)C[C@H]1O` [FH8470], the EC50 is 2 nM in data set [2] (setting [10]), 0.4 nM in data set [4] (read-out: T. brucei rhod. EC50) and 50 nM in data set [1] (setting [5]).

Consider `CC(C)(C)[Si](C)(C)OC[C@@H]1C[C@@H](O)[C@H](n2cc(Br)c3c(N)ncnc32)O1` [FH8471, 4-Amino-5-Bromo-N7-(3′-Deoxy-5′-O-t-Butyl-Dimethylsilyl)-β-D-Ribofuranosyl-Pyrrolo[2,3-d]pyrimidine], for which the results for the EC50 in data set [2] (setting [13]), in data set [4] (setting [14]) and in data set [3] were 1210 nM, 80 nM and 5310 nM, respectively.

Consider `Cc1ccc(-c2cn([C@@H]3O[C@H](CO)C[C@H]3O)c3ncnc(N)c23)cc1` [FH8481, 4-amino-5-(4-methylphenyl)-N7-(3′-deoxy-β-D-ribofuranosyl)-pyrrolo[2,3-d]pyrimidine], for which the EC50 amounted to 33200 nM in data set [2] (setting [10]); 18400 nM in data set [4] (read-out: T. brucei rhod. EC50); 460 nM in data set [1] (setting [5]); 21000 nM in data set [3] (setting [11]); 21000 nM in data set [3] (setting [12]).

In the case of `Nc1ncnc2c1c(I)cn2[C@@H]1O[C@H](CO)C[C@H]1O` [FH8496, 4-amino-5-iodo-N7-(3′-deoxy-β-D-ribfuranosyl)-pyrrolo[2,3-d]pyrimidine], the EC50 worked out at 10 nM in data set [2] (setting [10]), 1 nM in data set [4] (read-out: T. brucei rhod. EC50) and 30 nM in data set [1] (setting [5]).

As for `Nc1ncnc2c1c(F)cn2[C@@H]1O[C@H](CO)C[C@H]1O` [FH8517, 4-amino-5-fluoro-N7-(3′-deoxy-β-D-ribofuranosyl)-pyrrolo[2,3-d]pyrimidine], the EC50 came out at 2 nM in data set [2] (setting [10]); 0.3 nM in data set [4] (read-out: T. brucei rhod. EC50); 1220 nM in data set [1] (setting [5]); 3600 nM in data set [3] (setting [11]); 3600 nM in data set [3] (setting [12]).

Turning to `CC(C)(C)[Si](C)(C)O[C@@H]1C[C@@H](CO)O[C@H]1n1cc(Br)c2c(N)ncnc21` [FH9552, 4-amino-5-bromo-N7-(2′-O-t-butyldimethylsilyl-3′-deoxy-β-D-ribofuranosyl)-pyrrolo[2,3-d]pyrimidine], the EC50 is 630 nM in data set [2] (setting [13]), 270 nM in data set [4] (setting [14]) and over 64000 nM in data set [3].

Consider `C=Cc1cn([C@@H]2O[C@H](CO)C[C@H]2O)c2ncnc(N)c12` [FH10659, 4-amino-5-vinyl-N7-(3′-deoxy-β-D-ribfuranosyl)-pyrrolo[2,3-d]pyrimidine], for which the EC50 is 40 nM in data set [2] (setting [10]), 5 nM in data set [4] (read-out: T. brucei rhod. EC50) and 9440 nM in data set [1] (setting [5]).
